{"source": "patent US6486310B1", "about": "“Gene encoding the rat dopamine D4 receptor” (Washington University, priority 1993, dated 2002)", "key": {"[1]": {"test_system": "D4 transfected MN9D cells", "assay": "Neurite morphology of D4 transfected MN9D cells", "conditions": "1 μM eticlopride co-cultured with 2 μM quinpirole"}, "[2]": {"test_system": "D2A444 transfected MN9D cells", "assay": "Neurite morphology of D2A444 transfected MN9D cells", "conditions": "1 μM eticlopride co-cultured with 2 μM quinpirole"}, "[3]": {"molecular_target": "T1, rat D4 receptor (Rattus norvegicus, UniProt P30729)", "T1 sequence (P30729 1-387)": "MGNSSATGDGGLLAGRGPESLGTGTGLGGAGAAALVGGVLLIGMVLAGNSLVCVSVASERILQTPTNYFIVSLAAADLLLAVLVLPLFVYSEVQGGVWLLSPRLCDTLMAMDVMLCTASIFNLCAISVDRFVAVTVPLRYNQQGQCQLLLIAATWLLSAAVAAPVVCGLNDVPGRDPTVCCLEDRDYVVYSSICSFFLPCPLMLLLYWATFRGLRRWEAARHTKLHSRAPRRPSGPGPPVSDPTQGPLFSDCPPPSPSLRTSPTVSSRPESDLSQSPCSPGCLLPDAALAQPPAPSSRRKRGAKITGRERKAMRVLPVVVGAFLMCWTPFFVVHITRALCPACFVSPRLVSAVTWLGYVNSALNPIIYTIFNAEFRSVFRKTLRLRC", "assay": "biochemical", "from_the_text": "FIG. 4 is a pharmacological analysis of transfected rat D2444 and D4 receptors and human D3 receptors in CCL1.3 cells. […] FIG. 4B is a graph of [^3H]-spiperone (%) versus log [(+)butaclamol, M]. […] The rat D4 gene, the rat D2444 cDNA and the human D3 cDNA were inserted into the expression vector pcDNA/neo and transfected into CCL1.3 cells. […] Open circles, D4-expressing cells; closed circles, D2444-expressing cells, triangles, D3-expressing cells. Results are shown as mean±SD of percent of specifically bound [^3H]spiperone remaining for an experiment done in triplicate.\nMouse fibroblasts expressing D2A444 and D4 were grown to 70% confluence and then harvested by scraping. After they had been washed twice in PBS, the cell pellets were resuspended in distilled water and ruptured by homogenization with a Brinkman Polytron, at setting 6 for 10 sec. Nuclei were removed by centrifugation for 5 min at 600 g. Membranes were pelleted by centrifugation for 25 min at 50,000 g. The pellets were resuspended in water and frozen at −70° C. until assayed. For receptor binding assays, samples containing 150 μg of membrane protein were aliquoted into glass test tubes. [^3H]-Spiperone (1 nm) and varying concentrations of competing compounds were added in a final volume of 1 ml and a final buffer of 1.5 Mm CaCl2, 5 mM MgCl2, 5 mM KCl, 120 mM NaCl, 50 mM Tris-HCl, pH 7.4 at 20° C. The tubes were incubated for 15 min at 37° C., and the assays were terminated by addition of 5 ml of ice-cold 50 Mm Tris-HCl buffer (pH 6.9), collected onto glass-fiber filters, and washed twice with the same cold buffer in a modified Brandel cell harvester.\nTransfected cells were enriched by expansion in medium containing G418. The rat D2 cDNA and the human D3 cDNA were expressed in the same cell line."}, "[4]": {"test_system": "D3 transfected MN9D cells", "assay": "Neurite morphology of D3 transfected MN9D cells", "conditions": "1 μM eticlopride co-cultured with 2 μM quinpirole"}, "[5]": {"test_system": "tyrosine hydroxylase expressing cells from E15 rat mesencephalon", "assay": "Morphology of tyrosine hydroxylase positive cells in primary E15 mesencephalon cultures", "assay_type": "cell-based", "conditions": "2 μM quinpirole, 90 hours, high density culture", "from_the_text": "Cultures were then fixed and dopamine synthesizing cells identified by tyrosine hydroxylase immunoreactivity. […] There are five TH positive cells in the control condition and three TH positive cells in the quinpirole condition."}}, "note": "Like-named read-outs stand apart in the source and are kept apart here.", "data": [{"compound": "CCc1cc(Cl)c(OC)c(C(=O)NC[C@@H]2CCCN2CC)c1O", "note": "[eticlopride]", "values": [{"measurement": "block of the effects of quinpirole stimulation", "setting": "[1]", "value": "can be blocked"}, {"measurement": "block of the effects of quinpirole stimulation", "setting": "[2]", "value": "can be blocked"}, {"measurement": "Ki", "setting": "[3]; Ki (D4)", "value": "22.3 ± 1.9", "unit": "nM"}, {"measurement": "Ki", "setting": "[3]; apparent Ki, D4 receptor", "value": "27 ± 2.9", "unit": "nM"}, {"measurement": "block of the effects of quinpirole stimulation", "setting": "[4]", "value": "can be blocked"}]}, {"compound": "CCCN1CCC[C@@H]2Cc3n[nH]cc3C[C@H]21", "note": "[quinpirole]", "values": [{"measurement": "morphology of TH positive cells versus control (in words)", "setting": "[5]", "value": "larger, have more branch points and much more extensive growth cone elaboration"}]}, {"compound": "(+)butaclamol [(+) butaclamal]", "values": [{"measurement": "Ki", "setting": "[3]; read-out: apparent Ki, D4 receptor, transfected CCL1.3 cells, competition of 1 nM [3H]spiperone, mean±SEM", "value": "51.3 ± 17.5", "unit": "nM"}]}]}
